Results reported in PMC8115619, “Generation of a chemical genetic model for JAK3” (Scientific Reports, 2021).

Experiments:
[1] = system: IL-2 induced STAT5 phosphorylation in wild type CD8 T cells; experiment: IL-2 induced STAT5 phosphorylation in wild type T cells; type: cell-based, mouse; details: inhibitor 30 min, 10 ng/ml IL-2 30 min
Procedure: (§1) (A) Single cell suspensions were prepared from the spleens of wild type mice. […] Cells were then stimulated with 10 ng/ml IL-4 for 30 min and the levels of phosphorylated STAT6 determined by immunoblotting. (B) As (A) except cells were stimulated with 10 ng/ml IL-2 and the levels of phosphorylated STAT5 determined. (C) CD8 T cells were expanded from the lymph nodes of wild type and JAK3 Cys905Ser knockin mice. Cells were rested in the absence of IL-2 for 60 min then incubated with the indicated concentrations of PF-06651600 for a further 30 min before stimulation with 10 ng/ml of IL-2 for 30 min. The levels of phosphorylated STAT5 and total ERK1/2 were then determined.
(§2) Lymph Nodes were harvested from the mice and a single cell suspension in PBS made by passing the tissue through a […] strainer. The cells were counted and seeded at density of 10^6 cells/ml in RPMI supplemented with10% heat inactivated FBS (Labtech), 2 mM L-glutamine, 100 U/ml penicillin G, 100 μg/ml streptomycin, 0.25 μg/ml amphotericin and 50 μM β-mercaptoethanol and stimulated with 1 μg/ml anti-CD28 (cat:16-0281-82; clone:37.51 Thermo Fisher), 1 μg/ml anti CD3e (cat:16-0031-85, Clone:145-2C11 Thermo Fisher), 20 ng/ml of IL-2 and 1 ng/ml of IL-12. The cells were cultured for 36 h and then the cell suspension was diluted 5 times with RPMI media containing 20 ng/ml of IL-2. […]

[2] = system: JAK2; details: ATP 4 μM; read-out: In vitro IC50 JAK2; cited from earlier work
[3] = system: JAK3; details: ATP 4 μM; read-out: In vitro IC50 JAK3; cited from earlier work
[4] = system: JAK1; details: ATP 40 μM; read-out: In vitro IC50 JAK1; cited from earlier work
[5] = system: IL-2 induced STAT5 phosphorylation in T cells from JAK3 Cys905Ser knockin mice; experiment: IL-2 induced STAT5 phosphorylation in JAK3 Cys905Ser knockin T cells; type: cell-based, mouse; details: CD8 T cells, inhibitor 30 min, 10 ng/ml IL-2 30 min
Procedure: as §1, §2

[6] = system: GM-CSF induced STAT5 phosphorylation in BMDMs; design: method as in PMID 26258521; details: 5 μM; cited from earlier work
[7] = target: NEK6 (Homo sapiens, UniProt Q9HC98); experiment: Selectivity screen NEK6; type: biochemical; details: 1 µM inhibitor, mean
NEK6, sequence (Q9HC98 whole entry): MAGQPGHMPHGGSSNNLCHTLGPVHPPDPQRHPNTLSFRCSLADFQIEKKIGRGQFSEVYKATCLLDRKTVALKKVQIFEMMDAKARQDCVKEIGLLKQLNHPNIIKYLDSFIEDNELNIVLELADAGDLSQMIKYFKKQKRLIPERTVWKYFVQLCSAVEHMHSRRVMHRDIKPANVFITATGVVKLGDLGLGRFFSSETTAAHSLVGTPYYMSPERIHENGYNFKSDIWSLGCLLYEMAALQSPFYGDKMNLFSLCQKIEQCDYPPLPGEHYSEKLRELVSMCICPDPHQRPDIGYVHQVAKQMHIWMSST
Procedure: (§3) For the in vitro kinase assay, JAK3 (5–20 mU diluted in 50 mM Tris pH 7.5, 0.1 mM EGTA, 0.05% β-mercaptoethanol, 1 mg/ml BSA) was assayed against PDKtide ([…]) in a final volume of 25.5 µl containing 50 mM Tris pH 7.5, 0.1 mM EGTA, 0.05% β-mercaptoethanol, 100 µM substrate peptide, 10 mM magnesium acetate and 0.02 mM [33P-γ-ATP] (50–1000 cpm/pmole) and incubated for 30 min at room temperature. Assays were started by the addition of the ATP and stopped by addition of 5 µl of 0.5 M (3%) orthophosphoric acid and then harvested onto P81 Unifilter plates with a wash buffer of 50 mM orthophosphoric acid. To determine the Km for ATP, assays were run using 1, 5, 10, 20, 50, 100, 200, 400, 500 μM ATP and Km derived by non-linear regression fitting to the Michaelis–Menten equation v = Vmax[S]/(Km + [S]). IC50 values for inhibitors via non-linear regression using a parameter model: Y = Bottom + (Top–Bottom)/(1 + (IC50/X)^HillSlope). Non-linear regression was carried out in Prism (version 8). In vitro selectivity screen was carried out as described previously.

[8] = target: SIK3 (Homo sapiens, UniProt Q9Y2K2); experiment: Selectivity screen SIK3; type: biochemical; details: 1 µM inhibitor, mean
SIK3, sequence (Q9Y2K2 whole entry): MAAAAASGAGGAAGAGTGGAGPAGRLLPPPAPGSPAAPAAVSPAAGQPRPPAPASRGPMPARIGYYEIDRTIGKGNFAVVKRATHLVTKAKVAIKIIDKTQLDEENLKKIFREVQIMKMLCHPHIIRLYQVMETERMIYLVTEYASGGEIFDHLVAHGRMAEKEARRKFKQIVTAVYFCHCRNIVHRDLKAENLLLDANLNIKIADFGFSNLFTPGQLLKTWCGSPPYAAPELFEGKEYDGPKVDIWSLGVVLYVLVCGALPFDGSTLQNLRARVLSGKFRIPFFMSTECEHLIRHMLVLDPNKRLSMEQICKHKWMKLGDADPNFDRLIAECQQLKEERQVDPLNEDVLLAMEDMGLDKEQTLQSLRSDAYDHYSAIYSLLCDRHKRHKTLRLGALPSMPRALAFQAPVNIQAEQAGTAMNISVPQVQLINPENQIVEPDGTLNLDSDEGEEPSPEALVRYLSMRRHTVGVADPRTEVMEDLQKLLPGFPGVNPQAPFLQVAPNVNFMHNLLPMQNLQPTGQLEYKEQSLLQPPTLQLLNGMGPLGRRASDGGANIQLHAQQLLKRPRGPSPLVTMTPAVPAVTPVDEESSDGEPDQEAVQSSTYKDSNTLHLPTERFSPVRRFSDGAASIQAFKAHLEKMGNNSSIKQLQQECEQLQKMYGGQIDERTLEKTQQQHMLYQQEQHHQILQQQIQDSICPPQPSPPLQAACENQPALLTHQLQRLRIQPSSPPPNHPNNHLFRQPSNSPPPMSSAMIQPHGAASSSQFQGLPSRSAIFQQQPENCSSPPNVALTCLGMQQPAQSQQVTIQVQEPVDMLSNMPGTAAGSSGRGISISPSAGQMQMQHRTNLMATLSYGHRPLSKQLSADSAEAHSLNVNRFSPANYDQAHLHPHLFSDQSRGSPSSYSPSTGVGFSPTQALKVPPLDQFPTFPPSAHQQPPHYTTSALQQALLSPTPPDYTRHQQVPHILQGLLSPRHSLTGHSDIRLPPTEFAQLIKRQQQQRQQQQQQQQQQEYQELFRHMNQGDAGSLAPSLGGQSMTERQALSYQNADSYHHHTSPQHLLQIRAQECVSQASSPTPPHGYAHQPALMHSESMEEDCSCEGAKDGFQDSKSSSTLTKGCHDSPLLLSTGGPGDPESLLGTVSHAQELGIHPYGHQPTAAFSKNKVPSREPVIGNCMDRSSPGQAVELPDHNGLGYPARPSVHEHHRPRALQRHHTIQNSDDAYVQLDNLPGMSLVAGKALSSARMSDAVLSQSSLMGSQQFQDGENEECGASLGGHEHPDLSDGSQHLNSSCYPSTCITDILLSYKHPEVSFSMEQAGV
Procedure: as §3

[9] = target: DAPK1 (Homo sapiens, UniProt P53355); experiment: Selectivity screen DAPK1; type: biochemical; details: 1 µM inhibitor, mean
DAPK1, sequence (P53355 whole entry): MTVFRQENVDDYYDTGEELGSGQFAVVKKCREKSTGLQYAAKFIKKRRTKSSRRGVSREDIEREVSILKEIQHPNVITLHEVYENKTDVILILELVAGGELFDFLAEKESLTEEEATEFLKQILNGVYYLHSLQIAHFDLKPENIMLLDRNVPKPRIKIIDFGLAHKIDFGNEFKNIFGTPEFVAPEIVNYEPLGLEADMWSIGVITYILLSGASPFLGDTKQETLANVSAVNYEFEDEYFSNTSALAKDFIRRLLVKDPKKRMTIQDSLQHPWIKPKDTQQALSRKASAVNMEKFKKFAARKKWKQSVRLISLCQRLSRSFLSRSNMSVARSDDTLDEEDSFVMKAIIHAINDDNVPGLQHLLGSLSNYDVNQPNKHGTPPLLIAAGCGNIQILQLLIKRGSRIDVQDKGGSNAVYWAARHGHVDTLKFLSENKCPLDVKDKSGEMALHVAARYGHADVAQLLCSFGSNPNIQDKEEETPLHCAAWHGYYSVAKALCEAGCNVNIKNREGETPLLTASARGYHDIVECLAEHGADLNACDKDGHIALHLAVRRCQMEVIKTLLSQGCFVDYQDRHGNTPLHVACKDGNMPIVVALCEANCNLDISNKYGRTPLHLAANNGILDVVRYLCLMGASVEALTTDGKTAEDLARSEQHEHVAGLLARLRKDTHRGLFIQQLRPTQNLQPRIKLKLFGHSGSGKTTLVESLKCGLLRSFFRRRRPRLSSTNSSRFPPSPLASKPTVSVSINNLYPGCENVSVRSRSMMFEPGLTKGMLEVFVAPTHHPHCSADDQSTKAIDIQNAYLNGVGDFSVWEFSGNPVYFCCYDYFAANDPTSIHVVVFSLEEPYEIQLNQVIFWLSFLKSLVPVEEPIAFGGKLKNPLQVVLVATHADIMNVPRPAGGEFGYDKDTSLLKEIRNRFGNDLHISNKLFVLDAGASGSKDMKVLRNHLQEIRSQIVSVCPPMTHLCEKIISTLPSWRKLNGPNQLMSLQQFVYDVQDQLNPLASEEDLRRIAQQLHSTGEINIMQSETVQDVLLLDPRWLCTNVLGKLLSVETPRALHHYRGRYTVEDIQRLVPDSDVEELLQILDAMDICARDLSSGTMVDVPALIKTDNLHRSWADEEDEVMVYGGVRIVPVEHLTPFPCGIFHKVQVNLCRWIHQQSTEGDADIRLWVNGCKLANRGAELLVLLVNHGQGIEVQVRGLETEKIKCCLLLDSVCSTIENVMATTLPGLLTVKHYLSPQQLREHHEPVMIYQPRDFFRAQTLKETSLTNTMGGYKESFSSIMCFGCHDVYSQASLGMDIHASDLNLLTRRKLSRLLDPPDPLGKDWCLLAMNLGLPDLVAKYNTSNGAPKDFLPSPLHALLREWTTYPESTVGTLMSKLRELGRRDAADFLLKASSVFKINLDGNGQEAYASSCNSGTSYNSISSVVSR
Procedure: as §3

[10] = system: IFNβ induced STAT1 phosphorylation in BMDMs; design: method as in PMID 26258521; details: cited from earlier work
[11] = system: IL-10 induced STAT3 phosphorylation in BMDMs; design: method as in PMID 26258521; details: cited from earlier work
[12] = target: ERK8 (Homo sapiens, UniProt Q8TD08); experiment: Selectivity screen ERK8; type: biochemical; details: 1 µM inhibitor, mean
ERK8, sequence (Q8TD08 whole entry): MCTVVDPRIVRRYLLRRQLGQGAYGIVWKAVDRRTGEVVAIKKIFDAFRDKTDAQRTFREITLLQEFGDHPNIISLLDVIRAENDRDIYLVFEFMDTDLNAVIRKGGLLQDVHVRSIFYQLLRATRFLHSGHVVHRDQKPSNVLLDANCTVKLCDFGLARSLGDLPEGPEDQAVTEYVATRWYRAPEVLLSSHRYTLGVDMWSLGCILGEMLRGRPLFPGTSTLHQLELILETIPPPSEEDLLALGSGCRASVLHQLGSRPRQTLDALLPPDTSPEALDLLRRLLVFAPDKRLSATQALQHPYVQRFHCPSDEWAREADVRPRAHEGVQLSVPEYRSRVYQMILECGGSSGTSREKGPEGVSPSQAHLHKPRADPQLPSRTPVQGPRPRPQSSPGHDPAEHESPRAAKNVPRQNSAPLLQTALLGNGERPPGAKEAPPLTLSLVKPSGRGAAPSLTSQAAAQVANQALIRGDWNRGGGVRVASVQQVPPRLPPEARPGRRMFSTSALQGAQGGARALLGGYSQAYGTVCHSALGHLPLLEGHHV
Procedure: as §3

[13] = target: PKBa (Homo sapiens, UniProt P31749); experiment: Selectivity screen PKBa; type: biochemical; details: 1 µM inhibitor, mean; read-out: activity remaining in the presence of the inhibitor: PKBa
PKBa, sequence (P31749 whole entry): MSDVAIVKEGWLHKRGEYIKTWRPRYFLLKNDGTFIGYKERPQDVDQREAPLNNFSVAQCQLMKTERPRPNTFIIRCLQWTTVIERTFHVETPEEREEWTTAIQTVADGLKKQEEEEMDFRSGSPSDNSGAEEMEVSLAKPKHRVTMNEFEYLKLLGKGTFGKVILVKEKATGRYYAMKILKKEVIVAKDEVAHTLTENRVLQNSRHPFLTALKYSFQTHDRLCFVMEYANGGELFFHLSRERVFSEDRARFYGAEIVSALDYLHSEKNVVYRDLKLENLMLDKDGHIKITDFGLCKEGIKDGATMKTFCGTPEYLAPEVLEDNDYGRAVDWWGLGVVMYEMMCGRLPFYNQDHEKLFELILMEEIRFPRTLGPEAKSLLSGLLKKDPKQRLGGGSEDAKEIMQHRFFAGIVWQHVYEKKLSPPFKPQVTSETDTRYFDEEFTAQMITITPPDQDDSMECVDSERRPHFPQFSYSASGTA
Procedure: as §3

Row | SMILES | block of IL-2 induced STAT5 phosphorylation in isolated wild type T cells [1] | IC50 [2] | IC50 [3] | IC50 [4] | block of IL-2 induced STAT5 phosphorylation in T cells from JAK3 Cys905Ser knockin mice [5] | inhibition of GM-CSF signaling in macrophages [6] | activity remaining in the presence of the inhibitor: NEK6 [7] | activity remaining in the presence of the inhibitor: SIK3 [8] | activity remaining in the presence of the inhibitor: DAPK1 [9] | inhibition of IFNβ signaling in macrophages ([10]; 5 μM) | block of STAT phosphorylation by IFNβ ([10]; 10 μM as printed in discussion) | inhibition of IL-10 signaling in macrophages ([11]; 5 μM) | block of STAT phosphorylation by IL-10 ([11]; 10 μM as printed in discussion) | activity remaining in the presence of the inhibitor: ERK8 [12] | remaining activity at 1 µM [13]
1 | C=CC(=O)N1C[C@H](Nc2ncnc3[nH]ccc23)CC[C@@H]1C [PF-06651600, 1-((2S,5R)-5-((7H-Pyrrolo[2,3-d]pyrimidin-4-yl)amino)-2-methylpiperidin-1-yl)prop-2-en-1-one, reference compound] | able to block | > 10 µM | […] | > 10 µM | did not block |  |  |  |  |  |  |  |  |  | 
2 | C=CC(=O)Nc1cccc(CNc2nc(Nc3ccc(N4CCN(C)CC4)cc3OC)ncc2Cl)c1 [TL6-144] |  |  |  |  |  | does not inhibit | 97 | 89 | 94 | does not inhibit | did not block | does not inhibit | did not block | 90 | 
3 | C=CC(=O)Nc1cccc(CNc2nc(Nc3ccc(N4CCOCC4)cc3)ncc2Cl)c1 [TL8-52] |  |  |  |  |  |  | 103 | 59 | 100 |  |  |  |  | 65 | 100%
